Results published in paper PMC11249646, “Small-Molecule Disruptors of the Interaction between Calcium- and Integrin-Binding Protein 1 and Integrin αIIbβ3 as Novel Antiplatelet Agents” (ACS Pharmacology & Translational Science, 2024).
Read-outs that look alike come from different tables or passages of the source.

Key:
[1] = biological target: T1, CIB1 and αIIb interaction (CIB1-GST : F-αIIb peptide) (Homo sapiens, UniProt Q99828); assay: FP assay, 1536-well qHTS format (primary and confirmatory screen); assay type: binding; conditions: for Curve Class (confirmatory screen): qHTS curve class
T1 construct: made in house; host or cells: BL-21 plus RIL cells (E. coli)
T1 sequence (Q99828 1-191): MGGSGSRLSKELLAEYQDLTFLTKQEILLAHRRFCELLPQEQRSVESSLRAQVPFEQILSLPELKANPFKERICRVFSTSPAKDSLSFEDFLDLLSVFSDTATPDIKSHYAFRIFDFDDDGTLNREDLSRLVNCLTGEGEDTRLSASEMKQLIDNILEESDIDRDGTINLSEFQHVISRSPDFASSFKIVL

[2] = biological target: T2, GST-CIB1 : F-scrambled peptide (Homo sapiens, UniProt Q99828); assay: FP scrambled-peptide counter screen, 1536-well format; assay type: binding; conditions: for IC50: read-out: IC50 [μM] (counterscreen); for Curve Class (counterscreen): qHTS curve class; for Confirm? (counterscreen): YES/NO
T2 construct: made in house; host or cells: BL-21 plus RIL cells (E. coli)
T2 sequence (Q99828 1-191): T1 sequence (Q99828 1-191)

[3] = Table S3, confirmatory screen, a negative sign marks inhibitory curves
[4] = Table S3, confirmatory screen, negative = inhibition
[5] = Table S3, counterscreen, negative = inhibition
[6] = confirmatory screen, negative sign = inhibitory curve
[7] = confirmatory screen, read-out: IC50 [μM] (confirmatory screen)
[8] = qHTS FP screen hits, Table S2, negative = inhibition
[9] = qHTS FP screen hits, Table S2, one class per curve where COUNT > 1, negative sign = inhibitory curve
[10] = qHTS FP screen hits, Table S2, read-out: IC50
[11] = counterscreen, negative sign = inhibitory curve
[12] = qHTS primary screen hits, Table S2, negative = inhibition
[13] = qHTS primary screen hits, Table S2, negative sign = inhibitory curve, several classes where COUNT > 1
[14] = qHTS primary screen hits, Table S2, read-out: IC50
[15] = Table S3, counterscreen, a negative sign marks inhibitory curves
[16] = Table S3, confirmatory screen, YES/NO call
[17] = Table S3, confirmatory screen, read-out: IC50 [μM] (confirmatory screen)
[18] = qHTS primary screen hits, Table S2, negative sign = inhibitory curve

Efficacy (%) (confirmatory screen) ([1]; confirmatory screen) | Confirm? (confirmatory screen) ([1]; confirmatory screen, YES/NO) | Curve Class (confirmatory screen) [1, 6] | IC50 [1, 7] [µM] | Efficacy (%) (counterscreen) ([2]; counterscreen) | Curve Class (counterscreen) [2, 11] | IC50 ([2]; counterscreen) [µM] | Structure (SMILES) | Curve Class (confirmatory screen) [1, 3] | Efficacy (%) (confirmatory screen) [1, 4] | Efficacy (%) (counterscreen) [2, 5] | IC50 ([2]; Table S3, counterscreen) [µM] | Efficacy (%) [1, 12] [%] | Curve Class [1, 13] | IC50 [1, 14] [µM] | Curve Class (counterscreen) [2, 15] | other results
– | – | – | – | – | – | – | O=C(Nc1ccc(S(=O)(=O)N2CCOCC2)cc1)c1cc(Cl)ccc1NS(=O)(=O)c1ccc(Cl)s1.O=C(O)C(F)(F)F [NCGC00249417-01] | 4 | -31 | 163 | 79.4 | – | – | – | – | –
– | – | – | – | – | – | – | CC(C)(O)CCc1ccc(OCc2cc(-c3cccc(OC(F)F)c3)c3ncccc3c2)cc1 [NCGC00249759-02] | 4 | -25 | -28 | – | -59 | -2.2 | 24.1 | 4 | –
– | – | – | – | – | – | – | Cc1ccc([N+](=O)[O-])[c]2c1[O][Hg]2 [NCGC00249897-01] | 4 | 0 | 111 | – | -49 | -1.4 | 3.5 | – | –
– | – | – | – | – | – | – | COC(=O)c1cc(Cl)ccc1NS(=O)(=O)C(F)(F)F [NCGC00249937-01] | 4 | 12 | -16 | – | -64 | -2.2 | 44.7 | 4 | –
-97 | YES | -1.1 | 22.4 | -36 | -1.2 | 7.9 | Cc1ccc(C)n1-c1sccc1C(=O)O [NCGC00253437-01] | – | – | – | – | -59 | -2.2 | 44.7 | – | Confirm? (counterscreen) ([2]; counterscreen): YES
– | – | – | – | – | – | – | N#Cc1ccc(NS(=O)(=O)c2ccc(NC(=O)Cc3ccc(Cl)c(Cl)c3)cc2)cc1.O=C(O)C(F)(F)F [NCGC00253445-01] | 2.3 | 146 | 202 | 70.8 | – | – | – | – | –
– | – | – | – | – | – | – | O=C(O)C(F)(F)F.O=S(=O)(Nc1nccs1)c1ccc(Nc2nc(-c3ccccc3)cs2)cc1 [NCGC00262380-01] | -2.2 | -80 | -81 | 50.1 | -69 | -2.2 | 50.1 | -2.1 | Confirm? (confirmatory screen) [1, 16]: YES
– | – | – | – | – | – | – | O=C(O)C(F)(F)F.O=S(=O)(NCc1nccs1)c1ccc(Nc2nc(-c3ccccc3)cs2)cc1 [NCGC00262383-01] | -2.2 | -80 | -83 | 50.1 | – | – | – | -2.2 | Confirm? (confirmatory screen) [1, 16]: YES; Efficacy (%) [1, 8]: -60%; Curve Class [1, 9]: -2.2; IC50 [1, 10]: 50.1 µM
– | – | – | – | – | – | – | NS(=O)(=O)c1ccc(Nc2nc(-c3ccccc3)cs2)cc1.O=C(O)C(F)(F)F [NCGC00262411-01] | -2.2 | -84 | -98 | 44.7 | -58 | -2.2 | 50.1 | -2.1 | Confirm? (confirmatory screen) [1, 16]: YES
– | – | – | – | – | – | – | CNc1oc(-c2c[nH]c3ccccc23)nc1C#N.O=C(O)C(F)(F)F [NCGC00262511-01] | -3 | -55 | -53 | 28.2 | -19 | – | 15.8 | -2.4 | Confirm? (confirmatory screen) [1, 16]: YES; IC50 [1, 17]: 35.5 µM; Curve Class [1, 18]: -1.4
-117 | YES | -1.1 | 22.4 | -35 | -1.4 | 12.6 | Cl.Nc1cc(C(F)(F)F)ccc1S [NCGC00262926-01] | – | – | – | – | -84 | -1.1 | 28.2 | – | Confirm? (counterscreen) ([2]; counterscreen): YES
– | – | – | – | – | – | – | Cc1ccc(S(=O)(=O)Nc2ccc(Br)cc2C(=O)Nc2nc(-c3ccccc3)cs2)cc1.O=C(O)C(F)(F)F [NCGC00262989-01] | 2.4 | 47 | 243 | 35.5 | -26 | -2.4 | 20 | – | –
– | – | – | – | – | – | – | Cn1cc(-c2[nH]c3cc(NC(=O)[C@H](N)C4CCCCC4)cc4c3c2C=NNC4=O)cn1 [NCGC00263132-02] | -2.2 | -85 | -107 | 79.4 | -24 | -1.4 | 4.2 | -2.1 | Confirm? (confirmatory screen) [1, 16]: YES; IC50 [1, 17]: 50.1 µM
-56 | YES | -1.2 | 14.1 | -40 | -1.2 | 15.8 | CC(C)c1ccccc1Cc1cc(C(=O)Nc2ccc(S(=O)(=O)c3ccccc3C(C)(C)C)cc2)c(O)c(O)c1O [NCGC00263208-01] | – | – | – | – | -27 | – | 15.2 | – | Curve Class [1, 18]: -2.4
– | – | – | – | – | – | – | Cc1ccc(S(=O)(=O)Nc2cc3c(cc2C(=O)Nc2nc(-c4ccccc4)cs2)OCO3)cc1.O=C(O)C(F)(F)F [NCGC00263702-01] | 4 | -44 | 111 | 44.7 | -40 | – | 39.8 | – | Curve Class [1, 18]: -2.2
– | – | – | – | – | – | – | COc1ccc(-n2ncc3c2CCCC3NC(=O)c2ccccc2Cl)cc1.O=C(O)C(F)(F)F (centres unmarked) [NCGC00273443-01] | 4 | -11 | 0 | – | -29 | -2.4 | 25.1 | 4 | –
– | – | – | – | – | – | – | COc1ccc(-n2ncc3c2CCCC3NC(=O)c2ccccc2F)cc1.O=C(O)C(F)(F)F (centres unmarked) [NCGC00273507-01] | 2.4 | 22 | 13 | – | -45 | -2.2 | 39.8 | 4 | –
-67 | YES | -2.4 | 12.6 | -48 | -2.2 | 25.1 | Cl.O=[N+]([O-])c1ccc(CNc2ccc(S(=O)(=O)Nc3nccs3)cc2)c(O)c1 [NCGC00273519-01] | – | – | – | – | -24 | -1.4 | 7.9 | – | –
-49 | YES | -2.4 | 22.4 | -43 | -2.2 | 50.1 | Cl.O=[N+]([O-])c1cccc(CNc2ccc(S(=O)(=O)Nc3nccs3)cc2)c1O [NCGC00273554-01] | – | – | – | – | -27 | -1.4 | 7.1 | – | –

Structure (SMILES) | Efficacy (%) (confirmatory screen) ([1]; confirmatory screen) | Confirm? (confirmatory screen) ([1]; confirmatory screen, YES/NO) | Curve Class (confirmatory screen) [1, 6] | IC50 [1, 7] [µM] | Efficacy (%) (counterscreen) ([2]; counterscreen) | Curve Class (counterscreen) [2, 11] | IC50 ([2]; counterscreen) [µM] | Curve Class (confirmatory screen) [1, 3] | Efficacy (%) (confirmatory screen) [1, 4] | Efficacy (%) (counterscreen) [2, 5] | IC50 ([2]; Table S3, counterscreen) [µM] | Efficacy (%) [1, 12] [%] | Curve Class [1, 13] | IC50 [1, 14] [µM] | Curve Class (counterscreen) [2, 15] | other results
O=C(O)C(F)(F)F.c1ccc(-n2ccc(-c3nnc4n3CCCCC4)c2)cc1 [NCGC00249645-01] | -104 | YES | -2.1 | 50.1 | -62 | -3 | 89.1 | – | – | – | – | – | – | – | – | Efficacy (%) [1, 8]: -91%; Curve Class [1, 9]: -2.2; IC50 [1, 10]: 79.4 µM
Cc1cnc(-c2ccccc2C(C)C)nc1NCc1ccc(-c2ccc(F)nc2)cc1.O=C(O)C(F)(F)F [NCGC00253893-01] | -124 | YES | -2.1 | 112 | -90 | -2.1 | 44.7 | – | – | – | – | -52 | -2.4 | 50.1 | – | –
N#Cc1ccc(NS(=O)(=O)c2ccc(Nc3nc(-c4ccccc4)cs3)cc2)cc1.O=C(O)C(F)(F)F [NCGC00262382-01] | -103 | YES | -2.1 | 44.7 | -84 | -2.2 | 44.7 | – | – | – | – | – | – | – | – | Efficacy (%) [1, 8]: -59%; Curve Class [1, 9]: -2.2; IC50 [1, 10]: 70.8 µM
